In patent US8937096B2, “Use of benzo-fused heterocyle sulfamide derivatives for the treatment of mania and bipolar disorder” (priority 2005, dated 2015):

Legend:
[1] = system: stressed and non-stressed animals; assay: Resident/Intruder Assay (Chronic Social Stress Assay); type: in vivo; set-up: Locomotor Mean ± SD / Rearing Mean ± SD / Sniffing Down Mean ± SD / Sniffing Up Mean ± SD: unit not given here; details: 10 mg/kg p.o.
Source text: The behavioral resident/intruder assay is used to screen compounds for anti-depressant-like activity.

[2] = system: Wistar rats; assay: Chronic Mild Stress Model (Chronic); type: in vivo, rat; details: stressed animals; i.p. once daily
Source text: In the chronic mild stress (CMS) model rats subjected to a variety of mild stressors for a prolonged period of time show, among other behavioral, biochemical and physiological impairments, a substantial decrease in their responsiveness to rewarding stimuli. This deficit is usually monitored by a decrease in the consumption of the 1% sucrose solution, but can also be seen in other tests, such as place preference conditioning or intracranial self-stimulation. Since the subsensitivity to reward appears to reflect anhedonia (inability to experience pleasure), which is a core symptom of major depressive disorders, the CMS procedure may serve as a suitable research tool in studies into the mechanisms of antidepressant action.
Male Wistar rats were brought into the laboratory two months before the start of the experiment. Except as described below, the animals were singly housed with food and water freely available, and were maintained on a 12-h light/dark and in a constant temperature (22±2° C.) and humidity (50±5%) conditions.
The animals were first trained to consume a 1% sucrose solution; training consisted of eight 1 h baseline tests in which sucrose was presented, in the home cage, following 14 h food and water deprivation; the sucrose intake was measured by weighing pre-weighed bottles containing the sucrose solution, at the end of the test. Subsequently, sucrose consumption was monitored, under similar conditions, at weekly intervals throughout the whole experiment.
On the basis of their sucrose intakes in the final baseline test, the animals were divided into two matched groups. One group of animals was subjected to the chronic mild stress procedure for a period of 7 consecutive weeks. […]
All results obtained in this study were analyzed by multiple analyses of variance with three between-subjects factors (stress/control, drug treatments and successive sucrose tests). […]

[3] = system: hippocampal kindled seizures; assay: Rat Hippocampal Kindling Test (Interruption of Kindled State); type: in vivo; details: reference drugs; suppression at doses associated with toxicity
Description: In the present rapid hippocampal kindling model adult male Sprague-Dawley rats (300-400 g) were surgically implanted with bipolar electrodes placed in the hippocampus. […] One week later, the rats received 2-3 supra-threshold stimulations delivered every 30 min before treatment with test compound, to ensure stability of the behavioral seizure stage and after-discharge duration. Fifteen minutes after the last stimulation, a single dose of vehicle or test compound was administered i.p. (intraperitoneally). After 15 min, each rat was then stimulated every 30 min for 3 to 4 h. After each stimulation, individual seizure scores and after-discharge durations were recorded. The group mean±SEM were calculated for each parameter. Eight rats per dose and a minimum of four doses were used to establish an ED50 value. Efficacy was measured as the ability of a compound to modify the seizure score (severity of spread) and after-discharge duration (ADD; excitability) of the generalized seizures.
Thus, according to the theories presented in current literature (Ghaemi, S. N., Boiman, E. E., and Goodwin, F. K., Soc. of Bio. Psychiatry, (1999), vol. 45, pp 137-144; Stoll, A. L., and Severus, W. E., Harvard Rev. Psychiatry, July/August (1996), Vol. 4, No. 2, pp 77-89) a decrease in seizure score and/or ADD may also be predictive of the ability of a test compound to treat the cycling associated with bipolar disorder.

[4] = Median toxic dose (TD50) / toxic doses of Compound #8 and reference drugs; details: rat, in vivo
[5] = system: hippocampal kindled seizures; details: rat, in vivo; cited from earlier work
[6] = system: amygdala kindled seizures; details: i.p.; cited from earlier work

NS(=O)(=O)NCC1CCc2ccccc2O1 (stereo not drawn) gave a melting point of 100 to 101 °C.

For CN(C)CCCN1c2ccccc2CCc2ccccc21 [Imipramine, imipramine, reference compound], the “Forced Swim Test: Immobility during 5 min: Week 5 Mean ± SD” value ([1]; non-stressed) was 125.3 ± 50.1, the “Sucrose Intake Mean ± SD Week 3” value ([1]; non-stressed) was 87.9 ± 2.7 and the “Sucrose Intake Mean ± SD Week 4” value ([1]; non-stressed) was 89.7 ± 5.3. The “Sucrose Intake Mean ± SD Week 5” value ([1]; non-stressed) was 91.0 ± 3.7, the “Locomotor Mean ± SD” value ([1]; non-stressed, week 1) was 8162.8 ± 929.9 and the “Rearing Mean ± SD” value ([1]; non-stressed, week 1) was 51.5 ± 12.6. For the same compound, the “Sniffing Down Mean ± SD” value ([1]; non-stressed, week 1) was 25.8 ± 4.9, the “Rearing Mean ± SD” value ([1]; non-stressed, week 5) was 42.1 ± 2.9 and the “Sniffing Down Mean ± SD” value ([1]; non-stressed, week 5) was 26.4 ± 5.2. The “Sniffing Up Mean ± SD” value ([1]; non-stressed, week 5) was 37.5 ± 2.1, the “Forced Swim Test: Immobility during 5 min: Week 5 Mean ± SD” value ([1]; stressed) was 157.5 ± 71.6 and the “Sucrose Intake Mean ± SD Week 3” value ([1]; stressed) was 70.5 ± 19.5. For the same compound, the “Sucrose Intake Mean ± SD Week 4” value ([1]; stressed) was 78.3 ± 15.1, the “Sucrose Intake Mean ± SD Week 5” value ([1]; stressed) was 73.6 ± 19.4 and the “Locomotor Mean ± SD” value ([1]; stressed, week 1) was 6037.8 ± 1382.8. For the same compound, the “Rearing Mean ± SD” value ([1]; stressed, week 1) was 30 ± 9.5, the “Sniffing Down Mean ± SD” value ([1]; stressed, week 1) was 14.4 ± 4.4 and the “Sniffing Up Mean ± SD” value ([1]; stressed, week 1) was 27.5 ± 7.9. For the same compound, the “Locomotor Mean ± SD” value ([1]; stressed, week 5) was 5642.8 ± 998.6, the “Rearing Mean ± SD” value ([1]; stressed, week 5) was 27.8 ± 7.4 and the “Sniffing Down Mean ± SD” value ([1]; stressed, week 5) was 17.3 ± 3.4. For the same compound, the “Sniffing Up Mean ± SD” value ([1]; stressed, week 5) was 24.3 ± 5.1 and the “treatment time after which increases in sucrose intake in stressed animals reached statistical significance vs Week 0” value [2] was “four weeks”.

With CCCC(CCC)C(=O)O [Valproic acid, reference compound] the “seizure activity in the hippocampal kindling model” value [3] was “significantly suppressed seizure activity” and the toxic doses [4] was > 300 mg/kg.

In the case of Nc1nnc(-c2cccc(Cl)c2Cl)c(N)n1 [lamotrigine], the “protection against hippocampal kindled seizures” value [5] is given as “unable to protect”, the “ADD reduced by” value [6] is given as 62% and the “ED50 (amygdala kindled seizures)” value [6] is given as 25 mg/kg. The “amygdala kindled seizure score” value [6] was ~2.
